These results are taken from BindingDB's records for doi:10.1021/jm020955n (Johannes Gutenberg-Universität, 2002).

This assay has as its target Glutamate receptor ionotropic, NMDA 1 glycine site (Sus scrofa). Put plainly: Tested for the affinity for the glycine binding site of the N-methyl-D-aspartate glutamate receptor using pig brain membranes in binding assay with [3H]-MDL- 105,519.
For orientation: Ki means a measure of affinity in units of concentration, obtained from inhibition or displacement. A high value points to weaker binding. `CC(=O)c1cccc(-n2c(O)cn(Cc3c(C(=O)O)[nH]c4cc(Cl)cc(Cl)c34)c2=O)c1` [3-[3-(3-Acetyl-phenyl)-2,4-dioxo-imidazolidin-1-ylmethyl]-4,6-dichloro-1H-indole-2-carboxylic acid] yielded a Ki of 57 nM.

For `O=C(O)c1[nH]c2cc(Cl)cc(Cl)c2c1CNS(=O)(=O)c1ccccc1` [3-(Benzenesulfonylamino-methyl)-4,6-dichloro-1H-indole-2-carboxylic acid], the Ki is 990 nM.

On to `CC(=O)c1ccc(-n2c(O)cn(Cc3c(C(=O)O)[nH]c4cc(Cl)cc(Cl)c34)c2=O)cc1` [3-[3-(4-Acetyl-phenyl)-2,4-dioxo-imidazolidin-1-ylmethyl]-4,6-dichloro-1H-indole-2-carboxylic acid], for which affinity was put at a Ki of 150 nM.

Regarding `O=C(O)c1[nH]c2cc(Cl)cc(Cl)c2c1Cn1cc(O)n(-c2ccc(F)cc2)c1=O` [4,6-Dichloro-3-[3-(4-fluoro-phenyl)-2,4-dioxo-imidazolidin-1-ylmethyl]-1H-indole-2-carboxylic acid], the Ki amounted to 53 nM.

On to `O=C(O)c1[nH]c2cc(Cl)cc(Cl)c2c1CNCc1ccccc1` [3-(Benzylamino-methyl)-4,6-dichloro-1H-indole-2-carboxylic acid], for which the Ki is 92000 nM.

Consider `CC(C)n1c(O)cn(Cc2c(C(=O)O)[nH]c3cc(Cl)cc(Cl)c23)c1=O` [4,6-Dichloro-3-(3-isopropyl-2,4-dioxo-imidazolidin-1-ylmethyl)-1H-indole-2-carboxylic acid], for which the Ki was 1050 nM.

Consider `O=C(NCc1c(C(=O)O)[nH]c2cc(Cl)cc(Cl)c12)Nc1ccccc1` [4,6-Dichloro-3-[(3-phenyl-ureido)-methyl]-1H-indole-2-carboxylic acid], for which the Ki was 14 nM.

In the case of `O=C(O)c1[nH]c2cc(Cl)cc(Cl)c2c1Cn1cc(O)n(-c2ccccc2)c1=O` [4,6-Dichloro-3-(2,4-dioxo-3-phenyl-imidazolidin-1-ylmethyl)-1H-indole-2-carboxylic acid], affinity was put at a Ki of 22 nM.

As to `O=C(O)c1[nH]c2cc(Cl)cc(Cl)c2c1Cn1cc(O)n(-c2cc(Cl)cc(Cl)c2)c1=O` [4,6-Dichloro-3-[3-(3,5-dichloro-phenyl)-2,4-dioxo-imidazolidin-1-ylmethyl]-1H-indole-2-carboxylic acid], the inhibitory constant (Ki) stood at 80 nM.

Regarding `O=C(O)c1[nH]c2cc(Cl)cc(Cl)c2c1Cn1cc(O)n(-c2cccc(Cl)c2)c1=O` [4,6-Dichloro-3-[3-(3-chloro-phenyl)-2,4-dioxo-imidazolidin-1-ylmethyl]-1H-indole-2-carboxylic acid], the affinity corresponds to a Ki of 85 nM.

In the case of `COc1ccc(-n2c(O)cn(Cc3c(C(=O)O)[nH]c4cc(Cl)cc(Cl)c34)c2=O)cc1` [4,6-Dichloro-3-[3-(4-methoxy-phenyl)-2,4-dioxo-imidazolidin-1-ylmethyl]-1H-indole-2-carboxylic acid], the Ki came out at 100 nM.

Consider `O=C(O)c1cc2c(Cl)cc(Cl)cc2[nH]1`, for which the Ki was 2900 nM.

As to `O=C(O)c1[nH]c2cc(Cl)cc(Cl)c2c1CN1CCN(c2ccccc2)C1=O` [4,6-Dichloro-3-(2-oxo-3-phenyl-imidazolidin-1-ylmethyl)-1H-indole-2-carboxylic acid], the Ki worked out at 58 nM.

`O=C(O)c1[nH]c2cc(Cl)cc(Cl)c2c1Cn1cc(O)n(-c2ccc(Cl)cc2)c1=O` [4,6-Dichloro-3-[3-(4-chloro-phenyl)-2,4-dioxo-imidazolidin-1-ylmethyl]-1H-indole-2-carboxylic acid]: the Ki worked out at 120 nM.

With `Cc1c(O)n(-c2ccccc2)c(=O)n1Cc1c(C(=O)O)[nH]c2cc(Cl)cc(Cl)c12` [4,6-Dichloro-3-(5-methyl-2,4-dioxo-3-phenyl-imidazolidin-1-ylmethyl)-1H-indole-2-carboxylic acid], the inhibition constant Ki is 310 nM.

In turn, `O=C(NCc1c(C(=O)O)[nH]c2cc(Cl)cc(Cl)c12)NS(=O)(=O)c1ccccc1` [4,6-dichloro-3-[({[(phenylsulfonyl)amino]carbonyl}amino)methyl]-1H-indole-2-carboxylic acid] yielded a Ki of 72 nM.

For the compound `O=C(O)c1[nH]c2cc(Cl)cc(Cl)c2c1Cn1cc(O)n(C2CCCCC2)c1=O` [4,6-Dichloro-3-(3-cyclohexyl-2,4-dioxo-imidazolidin-1-ylmethyl)-1H-indole-2-carboxylic acid], the inhibition constant (Ki) was 130 nM.

In turn, `O=C(O)c1[nH]c2cc(Cl)cc(Cl)c2c1Cn1cc(O)n(-c2ccccc2)c1=S` [4,6-Dichloro-3-(4-oxo-3-phenyl-2-thioxo-imidazolidin-1-ylmethyl)-1H-indole-2-carboxylic acid] registered an inhibition constant (Ki) of 580 nM.

The compound `CCn1c(O)cn(Cc2c(C(=O)O)[nH]c3cc(Cl)cc(Cl)c23)c1=O` [4,6-Dichloro-3-(3-ethyl-2,4-dioxo-imidazolidin-1-ylmethyl)-1H-indole-2-carboxylic acid] returned an inhibitory constant (Ki) of 1000 nM.

`Cc1ccc(-n2c(O)cn(Cc3c(C(=O)O)[nH]c4cc(Cl)cc(Cl)c34)c2=O)cc1` [4,6-Dichloro-3-(2,4-dioxo-3-p-tolyl-imidazolidin-1-ylmethyl)-1H-indole-2-carboxylic acid] registered a Ki of 36 nM.
